Test results from PubChem BioAssay AID252 (DTP/NCI, 2004).
Inconclusive results and toxic doses are left out.

Test system: BDF1 mice, intracerebral L1210 leukemia, survival T/C
Assay: NCI In Vivo Anticancer Drug Screen. Data for tumor model L1210 Leukemia (intracerebral) in B6D2F1 (BDF1) mice
Settings: higher = longer survival
Method: The antitumor activity of compounds was measured in mice bearing transplantable tumors. Survival or tumor size were measured and the results are expressed as the measurement made in the treated group (T) divided by the measurement made in the vehicle treated control group (C). The tumor model used in this assay is L1210 Leukemia (intracerebral) in B6D2F1 (BDF1) mice

[1] = endpoint: median survival time, dose: 512.0 mg/kg/injection, schedule: Q01DX009 (ip), vehicle: saline

For CCNC(=O)N(CC)N=O, the T/C (endpoint: mean survival time, dose: 222.0 mg/kg/injection, schedule: Q01DX001 (ip), vehicle: saline) was 100 % of control, the T/C (endpoint: mean survival time, dose: 333.0 mg/kg/injection, schedule: Q01DX001 (ip), vehicle: saline) was 110 % of control and the T/C (endpoint: mean survival time, dose: 500.0 mg/kg/injection, schedule: Q01DX001 (ip), vehicle: saline) was 123 % of control.
O=NN(CCCl)C(=O)NC1CCC(O)CC1 (centres undefined) was tested, and the T/C (endpoint: mean survival time, dose: 13.0 mg/kg/injection, schedule: Q01DX001 (ip), vehicle: saline with Tween-80) was 152 % of control, the T/C (endpoint: mean survival time, dose: 13.0 mg/kg/injection, schedule: Q01DX001 (ip), vehicle: saline) was 177 % of control and the T/C (endpoint: mean survival time, dose: 20.0 mg/kg/injection, schedule: Q01DX001 (ip), vehicle: saline with Tween-80) was 418 % of control. The T/C (endpoint: mean survival time, dose: 26.0 mg/kg/injection, schedule: Q01DX001 (ip), vehicle: saline) was 448 % of control, the T/C (endpoint: mean survival time, dose: 30.0 mg/kg/injection, schedule: Q01DX001 (ip), vehicle: saline with Tween-80) was 479 % of control and the T/C (endpoint: mean survival time, dose: 40.0 mg/kg/injection, schedule: Q01DX001 (ip), vehicle: saline) was 479 % of control. For the same molecule, the T/C (endpoint: mean survival time, dose: 44.0 mg/kg/injection, schedule: Q01DX001 (ip), vehicle: saline with Tween-80) was 286 % of control, the T/C (endpoint: mean survival time, dose: 60.0 mg/kg/injection, schedule: Q01DX001 (ip), vehicle: saline) was 322 % of control and the T/C (endpoint: mean survival time, dose: 67.0 mg/kg/injection, schedule: Q01DX001 (ip), vehicle: saline with Tween-80) was 96 % of control. The T/C (endpoint: mean survival time, dose: 90.0 mg/kg/injection, schedule: Q01DX001 (ip), vehicle: saline) was 114 % of control.
N[C@H](C(=O)O)[C@H]1ON=C(Cl)[C@@H]1O was tested, and the T/C (endpoint: mean survival time, dose: 8.0 mg/kg/injection, schedule: Q01DX009 (ip), vehicle: saline) was 109 % of control, the T/C (endpoint: mean survival time, dose: 16.0 mg/kg/injection, schedule: Q01DX009 (ip), vehicle: saline) was 115 % of control and the T/C (endpoint: median survival time, dose: 256.0 mg/kg/injection, schedule: Q01DX009 (ip), vehicle: saline) was 123 % of control. For the same molecule, the T/C [1] was 111 % of control and the T/C (endpoint: median survival time, dose: 1024.0 mg/kg/injection, schedule: Q01DX009 (ip), vehicle: saline) was 171 % of control.
In the case of CN(Cc1cnc2nc(N)nc(N)c2n1)c1c(Cl)cc(C(=O)NC(CCC(=O)O)C(=O)O)cc1Cl (centres undefined), the T/C (endpoint: mean survival time, dose: 285.0 mg/kg/injection, schedule: Q01DX001 (ip), vehicle: carboxymethylcellulose (CMC)) is reported as 91 % of control, the T/C (endpoint: mean survival time, dose: 434.0 mg/kg/injection, schedule: Q01DX001 (ip), vehicle: carboxymethylcellulose (CMC)) is reported as 90 % of control and the T/C (endpoint: mean survival time, dose: 647.0 mg/kg/injection, schedule: Q01DX001 (ip), vehicle: carboxymethylcellulose (CMC)) is reported as 95 % of control.
For Nc1nc(=O)n(C2OC(CO)C(O)C2O)cc1F (centres undefined), the T/C (endpoint: median survival time, dose: 1.0 mg/kg/injection, schedule: Q01DX009 (ip), vehicle: saline) was 116 % of control, the T/C (endpoint: median survival time, dose: 2.0 mg/kg/injection, schedule: Q01DX009 (ip), vehicle: saline) was 124 % of control and the T/C (endpoint: median survival time, dose: 4.0 mg/kg/injection, schedule: Q01DX009 (ip), vehicle: saline) was 124 % of control. For the same molecule, the T/C (endpoint: median survival time, dose: 8.0 mg/kg/injection, schedule: Q01DX009 (ip), vehicle: saline) was 153 % of control, the T/C (endpoint: median survival time, dose: 8.0 mg/kg/injection, schedule: Q01DX009 (ip), vehicle: water) was 173 % of control and the T/C (endpoint: median survival time, dose: 16.0 mg/kg/injection, schedule: Q01DX009 (ip), vehicle: saline) was 179 % of control. For the same molecule, the T/C (endpoint: median survival time, dose: 16.0 mg/kg/injection, schedule: Q01DX009 (ip), vehicle: water) was 212 % of control, the T/C (endpoint: median survival time, dose: 32.0 mg/kg/injection, schedule: Q01DX009 (ip), vehicle: saline) was 201 % of control and the T/C (endpoint: median survival time, dose: 32.0 mg/kg/injection, schedule: Q01DX009 (ip), vehicle: water) was 234 % of control. For the same molecule, the T/C (endpoint: median survival time, dose: 64.0 mg/kg/injection, schedule: Q01DX009 (ip), vehicle: saline) was 228 % of control, the T/C (endpoint: median survival time, dose: 64.0 mg/kg/injection, schedule: Q01DX009 (ip), vehicle: water) was 247 % of control and the T/C (endpoint: median survival time, dose: 128.0 mg/kg/injection, schedule: Q01DX009 (ip), vehicle: water) was 89 % of control. The T/C [1] was 98 % of control.
